One assay has as its target T1, adenosine A3 receptor (Rattus norvegicus, UniProt P28647).
T1 construct: expressed in transfected cells; host or cells: EBNA cells
T1 sequence (P28647 1-320): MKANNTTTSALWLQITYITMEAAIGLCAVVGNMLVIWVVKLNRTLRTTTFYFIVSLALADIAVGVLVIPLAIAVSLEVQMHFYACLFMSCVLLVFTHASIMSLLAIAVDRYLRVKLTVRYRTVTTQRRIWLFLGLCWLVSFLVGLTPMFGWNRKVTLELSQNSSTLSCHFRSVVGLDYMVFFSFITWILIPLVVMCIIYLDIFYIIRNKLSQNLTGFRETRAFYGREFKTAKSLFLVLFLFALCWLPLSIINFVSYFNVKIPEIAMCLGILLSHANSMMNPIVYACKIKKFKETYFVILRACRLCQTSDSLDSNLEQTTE
Put plainly: Rat adenosine A3 receptor binding assay. The conditions noted are these: radioligand 125I AB-MECA, rat recombinant EBNA cells. How it is done:
Adenosine A3 radioligand binding was performed as follows. Rat recombinant EBNA cells were used with 1 nM ^125I AB-MECA as ligand.

The target of the next assay is T2, adenosine A1 (Rattus norvegicus, UniProt P25099).
T2 construct: Wistar rat (ca. 275 g) vas deferens were used; from tissue; host or cells: Wistar rat vas deferens
T2 sequence (P25099 1-326): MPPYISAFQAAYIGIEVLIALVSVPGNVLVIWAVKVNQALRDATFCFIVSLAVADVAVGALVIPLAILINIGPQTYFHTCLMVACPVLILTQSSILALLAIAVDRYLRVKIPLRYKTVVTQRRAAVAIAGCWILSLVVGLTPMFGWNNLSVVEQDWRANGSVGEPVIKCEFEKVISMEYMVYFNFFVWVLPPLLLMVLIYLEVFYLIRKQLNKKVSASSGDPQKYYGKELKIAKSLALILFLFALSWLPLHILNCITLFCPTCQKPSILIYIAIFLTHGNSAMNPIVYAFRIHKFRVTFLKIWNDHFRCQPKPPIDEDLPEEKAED
Put plainly: Rat adenosine A1 tissue assay (vas deferens). The arrangement: species or system Wistar rat. The procedure:
An adenosine A1 tissue assay was performed as follows to determine antagonist versus agonist functional activity. […] The vehicle used was 0.1% DMSO, the incubation buffer used was Krebs at pH 7.4, and the incubation time was 5 min at 32° C. The administration volume was 10 μL, the bath volume was 10 mL, and the time of assessment was 5 min using an isometric (gram changes) quantitation method. The criteria for functional agonism was a ≧50% reduction of neurogenic twitch relative to CHA response. The criteria for functional antagonism was a ≧50% inhibition of CHA-induced relaxation.

The Kd is the free concentration of one partner at which half of the binding sites on the other are occupied at equilibrium, for simple one-to-one binding. As for `CNC(=O)[C@H]1O[C@@H](n2cnc3c(NCc4ccc(N)cc4)ncnc32)[C@H](O)[C@@H]1O` [AB-MECA], the Kd on adenosine A3 receptor was determined as 1.3 nM.

Consider `OC[C@H]1O[C@@H](n2cnc3c(NC4CCCCC4)ncnc32)[C@H](O)[C@@H]1O` [CHA, N6-(cyclohexyl)adenosine], for which the agonist reference response at adenosine A1 (0.3 μM) is listed as 100%.

`CCCn1c(=O)c2[nH]c(C3CCCC3)nc2n(CCC)c1=O` [DPCPX, 8-cyclopentyl-1,3-dipropylxanthine] showed an antagonist reference response at adenosine A1 (10 nM) of 87%.

The values above are taken from patent US20050165232A1, “Phenyl substituted imidaopyridines and phenyl substituted benzimidazoles” (priority 2002, published 2005).
